{"source": "patent US20210338846A1", "about": "“COMPETITIVE PROSTATE-SPECIFIC MEMBRANE ANTIGEN (PSMA) BINDING AGENTS FOR REDUCTION OF NON-TARGET ORGAN UPTAKE OF RADIOLABELED PSMA INHIBITORS FOR PSMA POSITIVE TUMOR IMAGING AND RADIOPHARMACEUTICAL THERAPY” (The Johns Hopkins University, priority 2018, published 2021)", "system": "PSMA+ PC-3 PiP and PSMA− PC-3 flu tumors", "experiment": "Biodistribution of [177Lu]VK-I-45 without and with co-injection of competing inhibitor [Lu]VK-I-45", "assay_type": "in vivo, mice", "details": "self blocking; only a modest reduction in PSMA+PiP tumor uptake", "source_text": "VK-01-45 and its Lu-177 complex was reported in international PCT patent application publication no. WO 2017/165473 A, to Ray et al., which is incorporated herein by reference in its entirety. […] This approach can be applied to all compounds in WO 2017/165473 A1, to Ray et al."}
{"molecule": "O=C([O-])CN1CCN(CC(=O)[O-])CCN(CC(=O)NCCCCC(=O)N(CCCC[C@H](NC(=O)N[C@@H](CCC(=O)O)C(=O)O)C(=O)O)Cc2ccc(Br)cc2)CCN(CC(=O)[O-])CC1.[Lu+3]", "note": "[[Lu]VK-01-45]", "values": [{"measurement": "effect of competing inhibitor on two-hour kidney uptake and retention of [177Lu]VK-01-45", "value": "can be reduced"}]}
